The test system of assay [1] is lung cancer cell line NCI-H82. Description: Cell proliferation assay, NCI-H82 (CELL-TITER GLO). In kind it is cell-based. Conditions: Homo sapiens, NCI-H82, 72 h, NCI-H82 cells, 72 h incubation, cell viability by CELL-TITER GLO, top concentration 1 μM; read-out: EC50, Inhibition of NCl-H82 Cell Proliferation. On the procedure: The activity of a compound was determined in a cell proliferation assay using the lung cancer cell line NCI-H82. Cells (1,000 cells per well) were cultured with RPMI1640 in a 384-well tissue culture plate. After incubated overnight, the compound was added at predetermined concentrations, starting with 1 μM and followed by a 3-fold serial dilution. After the cells were incubated for 72 h, cell viability was determined using a CELL-TITER GLO assay. The CELL-TITER GLO reagent (25 μL) was added to each well and the luminescence was measured by a multimode microplate reader after a brief period of shaking. EC50 values were determined for the compound. The results are summarized in Table 1, wherein A represents a value no greater than 200 nM, B represents a value greater than 200 nM but no greater than 1 μM, C represents a value greater than 1 μM but no greater than […], and D represents a value greater than 5 μM.

Assay [2] concerns hepatocellular carcinoma cell line Hub-7. Kind of assay: Cell proliferation assay, Hub-7 (CELL-TITER GLO). In kind it is cell-based. Conditions: Hub-7 cells, 24 h incubation, cell viability by CELL-TITER GLO, top concentration 10 μM; read-out: EC50, Inhibition of Hub-7 Cell Proliferation. The method, boiled down:
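Hub-7 cells, 4,000 per well, seeded overnight, then exposed 24 h to compound from 10 μM top in 3-fold serial dilution. Viability read by CELL-TITER GLO luminescence; EC50 derived and binned into potency categories.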

Structures are written as SMILES.

As to `C#Cc1nc(NC(=O)N[C@@H](C)c2ccc(-c3cccc4ncsc34)cc2)cs1` [Compound A25, (S)-1-(1-(4-(Benzo[d]thiazol-7-yl)phenyl)ethyl)-3-(2-ethynylthiazol-4-yl)urea], the EC50 in assay [1] was ≤ 200 nM.
On to `C#Cc1nc(C(=O)N2CCC(F)(c3ccc(-c4cccc5ncsc45)cc3)CC2)cs1` [Compound D11, (4-(4-(Benzo[d]thiazol-7-yl)phenyl)-4-fluoropiperidin-1-yl)(2-ethynylthiazol-4-yl)methanone], for which the EC50 in assay [2] is ≤ 200 nM.
On the same count and under the same terms, the result for `C#Cc1nc(C(=O)N2CCN(c3ccc(-c4cccc5ncsc45)cc3C#N)CC2)cs1` [Compound D12, 5-(Benzo[d]thiazol-7-yl)-2-(4-(2-ethynylthiazole-4-carbonyl)piperazin-1-yl)-benzonitrile] reads ≤ 200 nM; that for `C#Cc1nc(C(=O)N2CC(c3ccc(-c4cccc5ncsc45)cc3)C2)cs1` [Compound D13, (3-(4-(Benzo[d]thiazol-7-yl)phenyl)azetidin-1-yl)(2-ethynylthiazol-4-yl)-methanone], ≤ 200 nM; that for `C#Cc1nc(C(=O)N2CCC(O)(c3ccc(-c4cccc5ncsc45)cc3)CC2)cs1` [Compound D14, (4-(4-(Benzo[d]thiazol-7-yl)phenyl)-4-hydroxypiperidin-1-yl)(2-ethynylthiazol-4-yl)methanone], ≤ 200 nM.
Same read-out and setting: the result for `C#Cc1nc(C(=O)N2CCC(c3cccc(-c4cccc5ncsc45)c3)CC2)cs1` [Compound D15, (4-(3-(Benzo[d]thiazol-7-yl)phenyl)piperidin-1-yl)(2-ethynylthiazol-4-yl)-methanone] reads 200 to 1000 nM.
On the same count and under the same terms, the result for `C#Cc1nc(C(=O)N2CCN(c3cccc(-c4cccc5ncsc45)c3)CC2)cs1` [Compound D16, (4-(3-(Benzo[d]thiazol-7-yl)phenyl)piperazin-1-yl)(2-ethynylthiazol-4-yl)-methanone] reads 200 to 1000 nM; that for `C#Cc1nc(C(=O)N2CCN(c3ccc(-c4cccc5ncsc45)cc3)CC2)cs1` [Compound D17, (4-(4-(Benzo[d]thiazol-7-yl)phenyl)piperazin-1-yl)(2-ethynylthiazol-4-yl)-methanone], ≤ 200 nM; that for `C#Cc1nc(C(=O)N2CCC(c3ccc(-c4cccc5ncsc45)cc3)CC2)cs1` [Compound D18, (4-(4-(Benzo[d]thiazol-7-yl)phenyl)piperidin-1-yl)(2-ethynylthiazol-4-yl)-methanone], ≤ 200 nM.
For `C#Cc1nc(C(=O)N2CCC(c3ccc(-c4cccc5nn(C)cc45)cc3)CC2)cs1` [Compound D19, (2-Ethynylthiazol-4-yl)(4-(4-(2-methyl-2H-indazol-4-yl)phenyl)piperidin-1-yl)-methanone], in assay [2], the EC50 was ≤ 200 nM.
Take `C#Cc1nc(C(=O)N2CCC(c3ccc(-c4cccc5c4cnn5C)cc3)CC2)cs1` [Compound D20, (2-Ethynylthiazol-4-yl)(4-(4-(1-methyl-1H-indazol-4-yl)phenyl)piperidin-1-yl)-methanone]: the EC50 in assay [2] is ≤ 200 nM.
On the same count and under the same terms, as for `C#Cc1nc(C(=O)N2CCC(c3ccc(-c4cccc5[nH]ncc45)cc3)CC2)cs1` [Compound D21, (4-(4-(1H-Indazol-4-yl)phenyl)piperidin-1-yl)(2-ethynylthiazol-4-yl)methanone], the figure is ≤ 200 nM; as for `C#Cc1nc(C(=O)N2CCN(c3ccc(-c4cccc5c4cnn5C)cc3)CC2)cs1` [Compound D22, (2-Ethynylthiazol-4-yl)(4-(4-(1-methyl-1H-indazol-4-yl)phenyl)piperazin-1-yl)-methanone], ≤ 200 nM; as for `C#Cc1nc(C(=O)N2CCN(c3ccc(-c4cccc5nn(C)cc45)cc3)CC2)cs1` [Compound D23, (2-Ethynylthiazol-4-yl)(4-(4-(2-methyl-2H-indazol-4-yl)phenyl)piperazin-1-yl)-methanone], ≤ 200 nM.
Same read-out and setting: the result for `C#Cc1nc(C(=O)N2CCC(c3ccc(C#N)cc3)CC2)cs1` [Compound D24, 4-(1-(2-Ethynylthiazole-4-carbonyl)piperidin-4-yl)benzonitrile] reads ≤ 200 nM; that for `C#Cc1nc(C(=O)N2CCN(c3ccc(-c4cccc5[nH]ncc45)cc3)CC2)cs1` [Compound D25, (4-(4-(1H-Indazol-4-yl)phenyl)piperazin-1-yl)(2-ethynylthiazol-4-yl)methanone], ≤ 200 nM.
With `C#Cc1nc(C(=O)N2CCN(c3ccc(C#N)cc3)CC2)cs1` [Compound D26, 4-(4-(2-Ethynylthiazole-4-carbonyl)piperazin-1-yl)benzonitrile], in assay [2], the EC50 lay in the range of 200 to 1000 nM.
On to `C#Cc1nc(C(=O)N2CCN(c3ccc([N+](=O)[O-])cc3)CC2)cs1` [Compound D27, (2-Ethynylthiazol-4-yl)(4-(4-nitrophenyl)piperazin-1-yl)methanone], for which the EC50 in assay [2] is ≤ 200 nM.
On the same count and under the same terms, as for `C#Cc1nc(C(=O)N2CCN(c3ccccc3)CC2)cs1` [Compound D28, (2-Ethynylthiazol-4-yl)(4-phenylpiperazin-1-yl)methanone], the figure is 200 to 1000 nM.
Same read-out and setting: as for `C#Cc1nc(C(=O)N2CCC(c3ccccc3)CC2)cs1` [Compound D29, (2-Ethynylthiazol-4-yl)(4-phenylpiperidin-1-yl)methanone], the figure is 200 to 1000 nM; as for `C#Cc1nc(C(=O)N2CCc3ccccc3C2)cs1` [Compound D30, (3,4-Dihydroisoquinolin-2(1H)-yl)(2-ethynylthiazol-4-yl)methanone], 200 to 1000 nM.
Same read-out and setting: the result for `C#Cc1nc(C(=O)N2CCC(O)CC2)cs1` [Compound D31, (2-Ethynylthiazol-4-yl)(4-hydroxypiperidin-1-yl)methanone] reads > 5000 nM.
Take `C#Cc1nc(C(=O)N2CCCCC2CCO)cs1` (stereo not shown) [Compound D32, (2-Ethynylthiazol-4-yl)(2-(2-hydroxyethyl)piperidin-1-yl)methanone]: the EC50 in assay [2] was > 5000 nM.
For the molecule `C#Cc1nc(C(=O)N2CCCC(CO)C2)cs1` (stereo not shown) [Compound D33, (2-Ethynylthiazol-4-yl)(3-(hydroxymethyl)piperidin-1-yl)methanone], the EC50 in assay [2] was > 5000 nM.
Same read-out and setting: as for `C#Cc1nc(C(=O)N2CCCC(O)C2)cs1` (stereo not shown) [Compound D34, (2-Ethynylthiazol-4-yl)(3-hydroxypiperidin-1-yl)methanone], the figure is > 5000 nM.
Turning to `C#Cc1nc(C(=O)N2CCC(C(=O)OC)CC2)cs1` [Compound D35, Methyl 1-(2-ethynylthiazole-4-carbonyl)piperidine-4-carboxylate], in assay [2], the EC50 is > 5000 nM.
Still for that read-out and setting: as for `C#Cc1nc(C(=O)N2CCCC(C(=O)OC)C2)cs1` (stereo not shown) [Compound D36, Methyl 1-(2-ethynylthiazole-4-carbonyl)piperidine-3-carboxylate], the figure is > 5000 nM; as for `C#Cc1nc(C(=O)N2CCCCC2C(=O)OC)cs1` (stereo not shown) [Compound D37, Methyl 1-(2-ethynylthiazole-4-carbonyl)piperidine-2-carboxylate], > 5000 nM.
The same measure, in the same setting: the result for `C#Cc1nc(NC(=O)CCc2ccc(-c3cccc4ncsc34)cc2)cs1` [Compound E1, 3-(4-(benzo[d]thiazol-7-yl)phenyl)-N-(2-ethynylthiazol-4-yl)propanamide] reads 200 to 1000 nM.
For the molecule `C#Cc1nc(NC(=O)[C@@H](N)Cc2ccccc2)cs1` [Compound E2, (S)-2-Amino-N-(2-ethynylthiazol-4-yl)-3-phenylpropanamide], the EC50 in assay [2] is 1000 to 5000 nM.
Same read-out and setting: as for `C#Cc1nc(NC(=O)[C@H](N)Cc2ccccc2)cs1` [Compound E3, (R)-2-Amino-N-(2-ethynylthiazol-4-yl)-3-phenylpropanamide], the figure is 200 to 1000 nM; as for `C#Cc1nc(NC(=O)CCc2ccc(-c3cccc4c3cnn4C)cc2)cs1` [Compound E4, N-(2-Ethynylthiazol-4-yl)-3-(4-(1-methyl-1H-indazol-4-yl)phenyl)propanamide], ≤ 200 nM; as for `C#Cc1nc(NC(=O)[C@H](N)Cc2ccccc2C#N)cs1` [Compound E5, (R)-2-Amino-3-(2-cyanophenyl)-N-(2-ethynylthiazol-4-yl)propenamide], ≤ 200 nM.
Still for that read-out and setting: the result for `C#Cc1nc(C(=O)NCCc2cccc(-c3cncs3)c2)cs1` [Compound E6, 2-Ethynyl-N-(3-(thiazol-5-yl)phenethyl)thiazole-4-carboxamide] reads 200 to 1000 nM; that for `C#Cc1nc(C(=O)NCCc2cccc(-c3cscn3)c2)cs1` [Compound E7, 2-Ethynyl-N-(3-(thiazol-4-yl)phenethyl)thiazole-4-carboxamide], 1000 to 5000 nM; that for `C#Cc1nc(NC(=O)[C@@H](N)Cc2ccccc2C#N)cs1` [Compound E8, (S)-2-Amino-3-(2-cyanophenyl)-N-(2-ethynylthiazol-4-yl)propenamide], 1000 to 5000 nM.
As for `C#Cc1nc(NC(=O)CCc2ccc3c(c2)OCO3)cs1` [Compound E9, 3-(Benzo[d][1,3]dioxol-5-yl)-N-(2-ethynylthiazol-4-yl)propanamide], the EC50 in assay [2] is 200 to 1000 nM.
Turning to `C#Cc1nc(NC(=O)c2ccc3ccccc3n2)cs1` [Compound E10, N-(2-Ethynylthiazol-4-yl)quinoline-2-carboxamide], the EC50 in assay [2] lay in the range of 1000 to 5000 nM.
Still for that read-out and setting: as for `C#Cc1nc(NC(=O)C=Cc2ccccc2)cs1` [Compound E11, N-(2-Ethynylthiazol-4-yl)cinnamamide], the figure is 200 to 1000 nM; as for `C#Cc1nc(NC(=O)c2ccccc2)cs1` [Compound E12, N-(2-Ethynylthiazol-4-yl)benzamide], 1000 to 5000 nM.

Source of the values: patent publication US20240101546A1, “HETEROARYL-ACETYLENES, PHARMACEUTICAL COMPOSITIONS THEREOF, AND THEIR THERAPEUTIC APPLICATIONS” (Eubulus Biotherapeutics Inc., priority 2020, published 2024).
